The compounds below were run against Glycogen synthase kinase-3 beta (Rattus norvegicus, UniProt P18266) (assay: Kinase Inhibition Assay). Details: 30 °C.
Protocol: (§1) Kinase activities were assayed in buffers containing substrate, enzyme, and inhibitor at 30 °C in the presence of 15 uM ATP/ [gamma-32P] ATP. 32P incorporation was measured with a scintillation counter. The IC50 is the inhibitor concentration, which inhibits 50% of kinase activity that catalyzes the transfer of the terminal phosphate from 32P labeled ATP to the substrate.

Sequence of Glycogen synthase kinase-3 beta (P18266 whole entry): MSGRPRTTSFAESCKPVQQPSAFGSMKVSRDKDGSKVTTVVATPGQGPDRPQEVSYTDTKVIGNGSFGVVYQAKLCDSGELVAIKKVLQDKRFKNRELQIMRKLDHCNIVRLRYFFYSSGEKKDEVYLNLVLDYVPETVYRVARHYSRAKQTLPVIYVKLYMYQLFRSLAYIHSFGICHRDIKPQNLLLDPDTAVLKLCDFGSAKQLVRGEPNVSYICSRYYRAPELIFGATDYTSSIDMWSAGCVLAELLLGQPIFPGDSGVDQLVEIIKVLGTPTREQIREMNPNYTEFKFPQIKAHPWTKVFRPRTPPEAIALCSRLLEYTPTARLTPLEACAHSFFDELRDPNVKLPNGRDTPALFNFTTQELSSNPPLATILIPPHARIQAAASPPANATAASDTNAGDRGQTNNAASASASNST

IC50	Compound
5.3 µM	N[C@H]1CC[C@H](Nc2cc(Nc3ccc(S(=O)(=O)c4ccccc4)cc3)n3ncc(Br)c3n2)CC1 [5-N-(4-aminocyclohexyl)-7-N-[4-(benzenesulfonyl)phenyl]-3-bromopyrazolo[1,5-a]pyrimidine-5,7-diamine]
11 µM	CC(C)c1cnn2c(Nc3ccc(S(C)(=O)=O)cc3)cc(Cl)nc12 [5-chloro-N-(4-methanesulfonylphenyl)-3-(propan-2-yl)pyrazolo[1,5-a]pyrimidin-7-amine]
0.46 µM	CN(C)S(=O)(=O)c1ccc(Nc2cc(N[C@H]3CC[C@H](N)CC3)nc3c(C#N)cnn23)cc1 [4-({5-[(4-aminocyclohexyl)amino]-3-cyanopyrazolo[1,5-a]pyrimidin-7-yl}amino)-N,N-dimethylbenzene-1-sulfonamide]
12 µM	CC(C)COc1cc(Nc2ccc(S(C)(=O)=O)cc2)n2ncc(C(C)C)c2n1 [N-(4-methanesulfonylphenyl)-5-(2-methylpropoxy)-3-(propan-2-yl)pyrazolo[1,5-a]pyrimidin-7-amine]
22 µM	CN(C)S(=O)(=O)c1ccc(Nc2cc(N[C@H]3CC[C@H](N)CC3)nc3c(C4CCCC4)cnn23)cc1 [4-({5-[(4-aminocyclohexyl)amino]-3-cyclopentylpyrazolo[1,5-a]pyrimidin-7-yl}amino)-N,N-dimethylbenzene-1-sulfonamide]
5.1 µM	CN(C)S(=O)(=O)c1ccc(Nc2cc(N[C@H]3CC[C@H](N)CC3)nc3c(Cl)cnn23)cc1 [4-({5-[(4-aminocyclohexyl)amino]-3-chloropyrazolo[1,5-a]pyrimidin-7-yl}amino)-N,N-dimethylbenzene-1-sulfonamide]
> 50 µM	CC(C)c1cnn2c(Nc3ccc(S(=O)(=O)N(C)C)cc3)cc(NC3CCCC(N)C3)nc12 (centres undefined) [4-({5-[(3-aminocyclohexyl)amino]-3-(propan-2-yl)pyrazolo[1,5-a]pyrimidin-7-yl}amino)-N,N-dimethylbenzene-1-sulfonamide]
0.96 µM	Brc1cccc(-c2cc(NCc3ccncc3)n3nccc3n2)c1 [5-(3-bromophenyl)-N-(pyridin-4-ylmethyl)pyrazolo[1,5-a]pyrimidin-7-amine]
28 µM	CC(C)c1cnn2c(Nc3ccc(S(=O)(=O)N(C)C)cc3)cc(O[C@H]3CC[C@H](N)CC3)nc12 [4-({5-[(4-aminocyclohexyl)oxy]-3-(propan-2-yl)pyrazolo[1,5-a]pyrimidin-7-yl}amino)-N,N-dimethylbenzene-1-sulfonamide]
8.7 µM	CN(C)S(=O)(=O)c1ccc(Nc2cc(N[C@H]3CC[C@H](N)CC3)nc3c(Br)cnn23)cc1Cl [4-({5-[(4-aminocyclohexyl)amino]-3-bromopyrazolo[1,5-a]pyrimidin-7-yl}amino)-2-chloro-N,N-dimethylbenzene-1-sulfonamide]
50 µM	CC(C)COc1cc(Nc2ccc(S(=O)(=O)N(C)C)cc2)n2ncc(C(C)C)c2n1 [N,N-dimethyl-4-{[5-(2-methylpropoxy)-3-(propan-2-yl)pyrazolo[1,5-a]pyrimidin-7-yl]amino}benzene-1-sulfonamide]
3.4 µM	CN(C)S(=O)(=O)c1ccc(Nc2cc(N[C@H]3CC[C@H](N)CC3)nc3c(Br)cnn23)cc1 [4-({5-[(4-aminocyclohexyl)amino]-3-bromopyrazolo[1,5-a]pyrimidin-7-yl}amino)-N,N-dimethylbenzene-1-sulfonamide]
40 µM	CC(C)c1cnn2c(Nc3ccc(S(=O)(=O)N(C)C)cc3)cc(N[C@H]3CC[C@H](N)CC3)nc12 [4-({5-[(4-aminocyclohexyl)amino]-3-(propan-2-yl)pyrazolo[1,5-a]pyrimidin-7-yl}amino)-N,N-dimethylbenzene-1-sulfonamide]
3.1 µM	CS(=O)(=O)c1ccc(Nc2cc(Cl)nc3ccnn23)cc1 [5-chloro-N-(4-methanesulfonylphenyl)pyrazolo[1,5-a]pyrimidin-7-amine]
> 50 µM	CCN(CC)[C@H]1CC[C@H](Nc2cc(Nc3ccc(S(=O)(=O)N(C)C)cc3)n3ncc(C(C)C)c3n2)CC1 [4-[(5-{[4-(diethylamino)cyclohexyl]amino}-3-(propan-2-yl)pyrazolo[1,5-a]pyrimidin-7-yl)amino]-N,N-dimethylbenzene-1-sulfonamide]
> 50 µM	CCN[C@H]1CC[C@H](Nc2cc(Nc3ccc(S(=O)(=O)N(C)C)cc3)n3ncc(C(C)C)c3n2)CC1 [4-[(5-{[4-(ethylamino)cyclohexyl]amino}-3-(propan-2-yl)pyrazolo[1,5-a]pyrimidin-7-yl)amino]-N,N-dimethylbenzene-1-sulfonamide]

What follows are compounds tested against Cyclin-dependent kinase 1/G2/mitotic-specific cyclin-B (Marthasterias glacialis, UniProt P15206+Q9DGD3) (assay: Kinase Inhibition Assay). Details: pH 7.2; 30 °C.
Sequence of Cyclin-dependent kinase 1/G2/mitotic-specific cyclin-B (Q9DGD3 whole entry): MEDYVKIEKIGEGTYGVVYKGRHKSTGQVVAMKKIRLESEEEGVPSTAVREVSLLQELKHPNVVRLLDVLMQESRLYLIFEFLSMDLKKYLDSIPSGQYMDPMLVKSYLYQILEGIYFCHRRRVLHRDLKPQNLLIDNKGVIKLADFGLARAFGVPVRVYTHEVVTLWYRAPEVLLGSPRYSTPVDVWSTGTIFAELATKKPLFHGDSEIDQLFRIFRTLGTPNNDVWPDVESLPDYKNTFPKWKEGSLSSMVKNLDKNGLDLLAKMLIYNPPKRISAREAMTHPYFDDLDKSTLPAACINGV
Sequence of Cyclin-dependent kinase 1/G2/mitotic-specific cyclin-B (P15206 whole entry): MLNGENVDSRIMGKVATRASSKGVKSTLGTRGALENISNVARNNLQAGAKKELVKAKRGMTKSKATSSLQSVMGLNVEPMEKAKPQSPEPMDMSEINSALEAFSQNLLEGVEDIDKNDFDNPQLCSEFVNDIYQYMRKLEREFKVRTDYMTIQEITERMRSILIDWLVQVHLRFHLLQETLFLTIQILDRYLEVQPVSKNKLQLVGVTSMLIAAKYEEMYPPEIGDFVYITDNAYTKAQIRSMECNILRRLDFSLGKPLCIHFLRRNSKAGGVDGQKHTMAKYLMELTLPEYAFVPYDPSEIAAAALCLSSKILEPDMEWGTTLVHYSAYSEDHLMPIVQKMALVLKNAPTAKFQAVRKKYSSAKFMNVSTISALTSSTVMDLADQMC
Protocol: as §1

Compound	IC50
CCOc1cnc2oc3ccc(O)cc3c2c1-c1ccccc1 [4-ethoxy-3-phenyl-8-oxa-6-azatricyclo[7.4.0.0^{2,7}]trideca-1(13),2(7),3,5,9,11-hexaen-12-ol]	> 100 µM
Oc1ccc2oc3ncc(Cl)c(-c4ccccc4)c3c2c1 [4-chloro-3-phenyl-8-oxa-6-azatricyclo[7.4.0.0^{2,7}]trideca-1(13),2(7),3,5,9,11-hexaen-12-ol]	> 100 µM
Cc1cnc2oc3ccc(O)cc3c2c1-c1ccccc1 [4-methyl-3-phenyl-8-oxa-6-azatricyclo[7.4.0.0^{2,7}]trideca-1(13),2(7),3,5,9,11-hexaen-12-ol]	> 100 µM
